From patent publication US12507721B2, “Ready-to-use parenteral nutrition formulation” (BAXTER INTERNATIONAL INC., priority 2021, dated 2025)
Marks after values point to notes of the source that are not given here.

Experiments:
Format in all cases: physicochemical
[1] = Vitamin B12 stability in dedicated formulations (Batches 1 to 4); settings: aqueous formulation, optimized conditions (oxygen content, pH, sterilization method)
Procedure: Table 16 provides for the various batches which were prepared for testing the stability of vitamin B12 in each setting.
For Batches 1 to 3, concentrated emulsions (40%) were diluted with a factor of 8. The vitamin bulk was used to dilute the emulsion from 40% to 5%. The pH was adjusted at 5.9 with a citrate buffer for Batch 1 and a phosphate buffer for Batch 2. An adjustment to pH 6.5 was performed for Batch 3 with HCl. The final volume was provided by adding Milli-Q water. In case of Batches 2 and 3, EDTA and PVP K17 were added before filling up to the final volume. The emulsions were filtered with a 4.5 μm filter before filling. Flushing of the solutions using N2 was performed before starting the filling of each batch. The Batches were manufactured under exclusion of light and oxygen. The dissolved oxygen was measured at the beginning of the filling to ensure it remains <1.0 ppm. The headspace volume was set as small as possible (≤10 mL) and the filling volume limits was 100 mL per monobag, ±2 mL. To avoid any risk of vitamin degradation, an aluminum overpouch was used to protect each monobag. An oxygen absorber was placed between primary bag and overpouch. Seals were inspected before sterilization rack loading. Four samples per Batch were kept unsterilized for Batches 1 through 4. […]

[2] = Vitamin B12 stability in 20% lipid emulsion during sterilization and storage; settings: for T1M40° C. concentration: 1 month at 40° C.; for T6M40° C. concentration: 6 months at 40° C., sum of cyanocobalamin and hydroxocobalamin
Procedure: (§1) For testing the stability of vitamin B12 in formulation as they are typically used in parenteral nutrition, a 35% glucose solution, a 14.2% amino acid formulation such as found, for example, in Olimel N9E (Baxter), and a 20% lipid emulsion such as found in Clinoleic 20% (Baxter) were supplemented with different vitamin combinations which always included vitamin B12. KCl was added into the glucose solution to understand if it has an effect on the stability of vitamin B12. Vitamin B1 was introduced as thiamin HCl. Ascorbyl palmitate was added to the lipid emulsion formulation as a stabilizing agent due to its antioxidant properties. In addition, two separate micellar solutions (“Vit A” and “Vit B”, see Table 9) comprising certain vitamins to be assessed with regard to degradation (B3, B6, B8, B9, B12, C) but formulated with different excipients as micellization agents were tested for vitamin B12 stability. Vit A consisted of a solution of mixed micelles with ascorbyl palmitate as a potential stability enhancer. Vit B was formulated with a mix of polysorbates, PEG and sorbitol to form micelles. The micellar solutions were prepared by mixing, under high speed, a solution composed of glycocholic acid and lecithins dissolved in water. In case of Vit B, the glycocholic acid and lecithin were replaced by PEG and polysorbate. All formulations were provided in standard flexible containers and overpouched with an aluminum overpouch for subsequent sterilization. For an overview over formulations and conditions see Table 9.
(§2) All samples were submitted to two different sterilization technologies. Steam sterilization targeting a F0=8 min was used for large volumes (400/800 ml, Cycle 2) and for small volumes (25/50 ml, Cycle 1) as lined out in Table 9 above. The same samples were sterilized by water spray sterilization with a serial tower continuous sterilization equipment with two different exposure times (Cycles 3 (25 min.) and 4 (19 min.)).
(§3) The vitamin recovery was then compared between the different sterilization cycles and formulations to understand the impact of the formulation and the sterilization technology used on their respective short- and long-term stability. Therefore, after sterilization, the samples were stored at 40° C./25% RH for 6 months to evaluate the recovery of vitamin B12 at T1M, T3M and T6M. Besides, backup samples were stored at 5° C. Finally, some samples were also stored at 25° C./40% RH to provide for real time stability data.
Vitamin B12 was also considerably degraded in the lipid emulsion (Tables 12 through 15). […] The instability of vitamin B12 in the standard lipid emulsions is probably linked to the presence of ascorbyl palmitate, which is generally present as an antioxidant. It should thus be avoided in formulations according to the invention.

[3] = Vitamin stability in 35% glucose solution during sterilization and storage; settings: 35% glucose solution; for T1M40° C. concentration: 1 month at 40° C.; for T3M40° C. concentration: 3 months at 40° C.; for T6M40° C. concentration: 6 months at 40° C., B12 value (*) is the sum of cyanocobalamin and hydroxocobalamin
Procedure: as §1, §2, §3

[4] = Vitamin B12 stability in mixed micelle solutions; settings: both mixed micelle solutions (Vit A, Vit B); steam or water spray sterilization
Procedure: For testing the stability of vitamin B12 in formulation as they are typically used in parenteral nutrition, a 35% glucose solution, a 14.2% amino acid formulation such as found, for example, in Olimel N9E (Baxter), and a 20% lipid emulsion such as found in Clinoleic 20% (Baxter) were supplemented with different vitamin combinations which always included vitamin B12. KCl was added into the glucose solution to understand if it has an effect on the stability of vitamin B12. Vitamin B1 was introduced as thiamin HCl. Ascorbyl palmitate was added to the lipid emulsion formulation as a stabilizing agent due to its antioxidant properties. In addition, two separate micellar solutions (“Vit A” and “Vit B”, see Table 9) comprising certain vitamins to be assessed with regard to degradation (B3, B6, B8, B9, B12, C) but formulated with different excipients as micellization agents were tested for vitamin B12 stability. Vit A consisted of a solution of mixed micelles with ascorbyl palmitate as a potential stability enhancer. […]
Accordingly, mixed micelles solutions having smaller volumes (25 ml or 50 ml, see Table 9) were produced according to known methods. […] The mixed micelles solutions from Table 5 were then sterilized according to Cycles 1, 2, 3 and 4 as described before and the degradation of vitamin B12 during sterilization and subsequent storage was monitored as described before.

[5] = Impact of pH on the stability of vitamin B12; settings: 6 months at 40° C.
[6] = 25 ml, Cycle 1 steam sterilization
[7] = 800 ml, Cycle 2 steam sterilization
[8] = 800 ml, Cycle 3 water spray sterilization
[9] = 800 ml, Cycle 4 water spray sterilization

stability of vitamin B12 in Batch 4 [1]: remains stable up to T7M40 °C
Unsterilized T0 concentration ([2]; 20% lipid emulsion (Table 14)): 0.014 mg/L
Unsterilized T0 concentration ([2]; 20% lipid emulsion (Table 15)): 0.014 mg/L
Unsterilized T0 concentration ([2]; 20% lipid emulsion with ascorbyl palmitate (Table 12)): 0.015 mg/L
T1M40° C. concentration ([2]; 20% lipid emulsion, Cycle 1 steam sterilization): 0.004 mg/L
T3M40° C. concentration ([2]; 20% lipid emulsion, Cycle 1 steam sterilization, 3 months at 40° C.): <LOD
T1M40° C. concentration ([2]; 20% lipid emulsion, Cycle 2 steam sterilization): <LOD
Cycle 2 T0 concentration ([2]; 20% lipid emulsion, Cycle 2 steam sterilization, after sterilization): 0.005 mg/L
T6M40° C. concentration ([2]; 20% lipid emulsion, Cycle 3 water spray sterilization (Table 14)): 0.0037* mg/L
Cycle 3 T0 concentration ([2]; 20% lipid emulsion, Cycle 3 water spray sterilization (Table 14), after sterilization): 0.005 mg/L
T6M40° C. concentration ([2]; 20% lipid emulsion, water spray sterilization (Table 15, head: Cycle 3)): 0.0055* mg/L
Cycle 3 T0 concentration ([2]; 20% lipid emulsion, water spray sterilization with serial tower continuous sterilization equipment (Table 15, head: Cycle 3), after sterilization): 0.006 mg/L
Unsterilized T0 concentration ([3]; 25 ml (Table 10A)): 0.0062 mg/L
T1M40° C. concentration [3, 6]: 0.0045 mg/L
T3M40° C. concentration [3, 6]: 0.0037 mg/L
Unsterilized T0 concentration ([3]; 800 ml (Table 10B)): 0.0062 mg/L
Unsterilized T0 concentration ([3]; 800 ml (Table 11A)): 0.006 mg/L
Unsterilized T0 concentration ([3]; 800 ml (Table 11B)): 0.006 mg/L
T1M40° C. concentration [3, 7]: 0.0040 mg/L
T3M40° C. concentration [3, 7]: 0.0036 mg/L
Cycle 3 T0 concentration ([3]; 800 ml, Cycle 3 water spray sterilization, C0 = 25 minutes, after sterilization): 0.0051 mg/L
T3M40° C. concentration [3, 8]: 0.0041 mg/L
T6M40° C. concentration [3, 8]: 0.0023* mg/L
Cycle 4 T0 concentration ([3]; 800 ml, Cycle 4 water spray sterilization, C0 = 19 minutes, after sterilization): 0.0052 mg/L
T3M40° C. concentration [3, 9]: 0.0041 mg/L
T6M40° C. concentration [3, 9]: 0.0031* mg/L
degradation after sterilization and subsequent storage [4]: almost complete degradation
vitamin B12 (cyanocobalamin plus hydroxocobalamin) recovered ([5]; Batch 1: 5% olive oil emulsion, pH 7.0, C0=40 min): 53.8%
vitamin B12 (cyanocobalamin plus hydroxocobalamin) recovered ([5]; Batch 2: 5% olive oil emulsion, pH 5.9, C0=80 min): 138%
Substance: cobalamin [Batch B12]
